Measured values published in ChEMBL document CHEMBL5543057, “Hydrophobic tag-based protein degradation: Development, opportunity and challenge” (Eur J Med Chem, 2023).

Assays:
HeLa = test: Antiproliferative activity against human HeLa cells assessed as reduction in cell viability incubated for 24 hrs by MTT assay; type: functional, cell-based
[1] = biological target: Serine/threonine-protein kinase PLK1 (Homo sapiens, UniProt P53350); test: Inhibition of PLK1 (unknown origin) (37 to 345 residues) expressed in Escherichia coli BL21 (DE3) incubated for 18 hrs by fluorescence polarization assay
NCI/ADR-RES = test: Antiproliferative activity against human MCF7ADR cells assessed as reduction in cell growth measured after 48 hrs by MTT assay; type: functional, cell-based
[2] = Clearance in Sprague-Dawley rat at 1 mg/kg, iv measured for 24 hrs by LC-MS/MS analysis; type: ADME, organism-based; conditions: in vivo
[3] = Clearance in Sprague-Dawley rat at 50 mg/kg, ip measured after 24 hrs by LC-MS/MS analysis; type: ADME, organism-based; conditions: in vivo
[4] = Half life in Sprague-Dawley rat at 1 mg/kg, iv measured for 24 hrs by LC-MS/MS analysis; type: ADME, organism-based; conditions: in vivo
[5] = Half life in Sprague-Dawley rat at 50 mg/kg, ip measured for 24 hrs by LC-MS/MS analysis; type: ADME, organism-based; conditions: in vivo
[6] = Oral bioavailability in Sprague-Dawley rat at 1 mg/kg by LC/MS/MS analysis; type: ADME, organism-based; conditions: in vivo
[7] = biological target: Protein cereblon/Bromodomain-containing protein 4 (Homo sapiens, UniProt O60885+Q96SW2); test: PROTAC activity at CRBN/BRD4 in human MV4-11 cells assessed as induction of degradation of BRD4 measured after 24 hrs by Western blot analysis; type: cell-based
Chain of Protein cereblon/Bromodomain-containing protein 4 (Q96SW2 whole entry, looked up, other chains not shown): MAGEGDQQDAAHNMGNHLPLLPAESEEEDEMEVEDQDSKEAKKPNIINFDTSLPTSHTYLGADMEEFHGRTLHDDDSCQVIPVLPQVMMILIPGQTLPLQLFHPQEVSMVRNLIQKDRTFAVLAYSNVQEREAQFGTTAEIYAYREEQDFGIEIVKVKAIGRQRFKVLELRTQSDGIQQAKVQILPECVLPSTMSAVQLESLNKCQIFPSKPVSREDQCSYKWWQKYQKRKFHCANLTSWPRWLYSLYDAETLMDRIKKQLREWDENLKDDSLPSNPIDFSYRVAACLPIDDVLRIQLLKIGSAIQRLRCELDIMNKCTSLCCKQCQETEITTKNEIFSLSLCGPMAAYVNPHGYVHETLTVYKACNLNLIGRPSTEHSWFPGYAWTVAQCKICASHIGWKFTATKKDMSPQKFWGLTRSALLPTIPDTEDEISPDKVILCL

Chain of Serine/threonine-protein kinase PLK1 (P53350 whole entry, the tested form may be a part): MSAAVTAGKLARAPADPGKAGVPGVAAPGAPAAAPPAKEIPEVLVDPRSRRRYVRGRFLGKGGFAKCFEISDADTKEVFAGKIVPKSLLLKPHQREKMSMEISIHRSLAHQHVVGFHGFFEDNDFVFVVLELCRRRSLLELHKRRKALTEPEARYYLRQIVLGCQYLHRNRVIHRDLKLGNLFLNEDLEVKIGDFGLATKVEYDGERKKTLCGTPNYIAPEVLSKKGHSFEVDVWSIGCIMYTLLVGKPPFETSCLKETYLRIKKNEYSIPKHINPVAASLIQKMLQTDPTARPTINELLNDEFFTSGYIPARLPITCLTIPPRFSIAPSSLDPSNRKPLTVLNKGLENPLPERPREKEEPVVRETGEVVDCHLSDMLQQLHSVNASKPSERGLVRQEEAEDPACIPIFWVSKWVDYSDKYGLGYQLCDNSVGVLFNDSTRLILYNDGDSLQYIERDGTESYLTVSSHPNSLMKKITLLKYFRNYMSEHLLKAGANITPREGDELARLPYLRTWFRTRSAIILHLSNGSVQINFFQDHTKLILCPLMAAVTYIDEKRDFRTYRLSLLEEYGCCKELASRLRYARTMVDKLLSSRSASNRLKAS

SMILES: CC1=C/C(=N/OC(=O)c2ccccc2C)C(C)=CC1=O
- IC50 (HeLa): 10.5 µM
- IC50 [1]: 1.4 µM

SMILES: CC1=CC(=O)[C@H]2/C(C=O)=C\C[C@H]3[C@@H]([C@@H](C)/C=C\C=C/C(=O)OCCOCCOCCOC(=O)CC45CC6CC(CC(C6)C4)C5)CC[C@]3(C)C[C@H]12
- IC50 (NCI/ADR-RES): 0.48 µM

SMILES: CC1=CC(=O)[C@H]2/C(C=O)=C\C[C@H]3[C@@H]([C@@H](C)/C=C\C=C/C(=O)OCCCOC(=O)CC45CC6CC(CC(C6)C4)C5)CC[C@]3(C)C[C@H]12
- IC50 (NCI/ADR-RES): 0.96 µM

SMILES: CC1=CC(=O)[C@H]2/C(C=O)=C\C[C@H]3[C@@H]([C@@H](C)/C=C\C=C/C(=O)OCCOCCOCCOCCOC(=O)CC45CC6CC(CC(C6)C4)C5)CC[C@]3(C)C[C@H]12
- IC50 (NCI/ADR-RES): 2.03 µM

SMILES: CC1=CC(=O)[C@H]2/C(C=O)=C\C[C@H]3[C@@H]([C@@H](C)/C=C\C=C/C(=O)OCCCCCCCCOC(=O)CC45CC6CC(CC(C6)C4)C5)CC[C@]3(C)C[C@H]12
- IC50 (NCI/ADR-RES): 1.49 µM

SMILES: CC1=CC(=O)[C@H]2/C(C=O)=C\C[C@H]3[C@@H]([C@@H](C)/C=C\C=C/C(=O)OCCOCCOC(=O)CC45CC6CC(CC(C6)C4)C5)CC[C@]3(C)C[C@H]12
- IC50 (NCI/ADR-RES): 0.87 µM

SMILES: CCc1cc2c(cc1N1CCN(CCCCC(=O)NCC3CC4C=CC3C4)CC1)C(C)(C)c1[nH]c3cc(C#N)ccc3c1C2=O (stereo unspecified)
- clearance [2]: 138 mL/min/kg
- CL/F [3]: 41.4 mL/min/kg
- half-life [4]: 25.2 min
- half-life [5]: 31.7 min
- bioavailability [6]: 8.6%

SMILES: CC(C)C[C@H](NC(=O)[C@H](C)NC(=O)[C@H](C)NC(=O)[C@H](C)NC(=O)[C@H](C)NC(=O)[C@H](CC(C)C)NC(=O)[C@@H](N)CCCNC(=N)N)C(=O)N[C@@H](CC(C)C)C(=O)N1CCC[C@H]1C(=O)N1CCC[C@H]1C(=O)N[C@H](C(=O)N[C@@H](CCC(=O)O)C(=O)N[C@@H](CCC(N)=O)C(=O)N[C@@H](CC(=O)O)C(=O)N[C@@H](CC(C)C)C(=O)N[C@@]1(C)CCC/C=C\CCC[C@@](C)(C(=O)N[C@@H](Cc2ccc(O)cc2)C(N)=O)NC(=O)[C@H](CC2CCCCC2)NC(=O)[C@H](CC(C)C)NC(=O)[C@H](CCCCN)NC1=O)[C@@H](C)O
- DC50 [7]: 10 µM

SMILES: CC1=C/C(=N\OC(=O)c2ccc(CNC(=O)CCc3cn(CCCCCCOCCOCCNC(=O)CC4C5CC6CC(C5)CC4C6)nn3)cc2C)C(C)=CC1=O (stereo unspecified)
- IC50 [1]: 10.5 µM

SMILES: CC1=C/C(=N\OC(=O)c2ccc(CNC(=O)CCc3cn(CCCCCCOCCOCCNC(=O)[C@H](C)CCC4C5CC6CC(C5)CC4C6)nn3)cc2C)C(C)=CC1=O (stereo partly specified)
- IC50 [1]: 48.2 µM

SMILES: CC(C)C[C@H](NC(=O)CCOCCOCCOCCNC(=O)CNC1C2CC3CC(C2)CC1C3)C(=O)N[C@@H](CC(C)C)C(=O)N1CCC[C@H]1C(=O)N1CCC[C@H]1C(=O)N[C@H](C(=O)N[C@@H](CCC(=O)O)C(=O)N[C@@H](CCC(N)=O)C(=O)N[C@@H](CC(=O)O)C(=O)N[C@@H](CC(C)C)C(=O)N[C@@]1(C)CCC/C=C\CCC[C@@](C)(C(=O)N[C@@H](Cc2ccc(O)cc2)C(N)=O)NC(=O)[C@H](CC2CCCCC2)NC(=O)[C@H](CC(C)C)NC(=O)[C@H](CCCCN)NC1=O)[C@@H](C)O (stereo partly specified)
- DC50 [7]: 5 µM
